Consider 18 molecules from US7122662B2, “Tricyclic compound having spiro union” (Mochida Pharmaceutical Co., Ltd., priority 1999, dated 2006).

The first assay deals with human plasma. Kind of assay: Measurement of intrinsic coagulation time (APTT) in vitro. It counts as biochemical.
Conditions: not given
As for the experimental part: Activated partial thromboplastin time (APTT) is measured in the presence of the test compounds diluted at various concentrations. A test compound diluted with DMSO at various concentrations is mixed with human plasma and APTT reagent. The mixture is incubated at 37° C. for 2 minutes; calcium chloride (25 mM) is added to the mixture; and the coagulation time is thereafter measured. It should be noted that the anticoagulant activity of the test compound is described in terms of the concentration required to double the coagulation time for the case where no test compound is added.
On to `COCCOC(=O)C12CN(S(=O)(=O)c3ccc4cc(Cl)ccc4c3)CC(=O)N1CC1(CCN(c3ccncc3)CC1)O2` (single isomer, unassigned; (-)) [Example 42, (−)-1,4-diaza-4-(6-chloronaphthalen-2-ylsulfonyl)-6-(2-methoxyethoxycarbonyl)-7-oxa-1′-(4-pyridyl)spiro[bicyclo[4.3.0]nonane-8,4′-piperidin]-2-one], for which the “Concentration required to double coagulation time” value (“Concentration required” for short) worked out at 0.20 µM. Same read-out and setting: the figure for `O=C(O)COCC12CN(S(=O)(=O)c3ccc4cc(Cl)ccc4c3)CC(=O)N1CC1(CCN(c3ccncc3)CC1)O2` (stereo not drawn) [Example 5, 1,4-diaza-4-(6-chloronaphthalen-2-ylsulfonyl)-6-(carboxymethoxymethyl)-7-oxa-1′-(4-pyridyl)spiro[bicyclo[4.3.0]nonane-8,4′-piperidin]-2-one] is 0.43 µM; for `COCC12CN(S(=O)(=O)c3ccc4ccccc4c3)CC(=O)N1CC1(CCN(c3ccncc3)CC1)O2` (stereo not drawn) [Example 6, 1,4-diaza-6-(methoxymethyl)-4-(2-naphthalenesulfonyl)-7-oxa-1′-(4-pyridyl)spiro[bicyclo[4.3.0]nonane-8,4′-piperidin]-2-one] it is 0.99 µM. As to `O=C1CN(S(=O)(=O)c2ccc3cc(Cl)ccc3c2)CC2OC3(CCN(c4ccncc4)CC3)CN12` (stereo not drawn) [Example 9, 1,4-diaza-4-(6-chloronaphthalen-2-ylsulfonyl)-7-oxa-1′-(4-pyridyl)spiro[bicyclo[4.3.0]nonane-8,4′-piperidin]-2-one], the “Concentration required” value was determined as 0.29 µM. `COCC12CN(S(=O)(=O)c3ccc4cc(Cl)ccc4c3)CC(=O)N1CC1(CCN(c3cc[n+](C)cc3)CC1)O2.Cc1ccc(S(=O)(=O)[O-])cc1` (stereo not drawn) [Example 23, 4-[1,4-diaza-4-(6-chloronaphthalen-2-ylsulfonyl)-6-(methoxymethyl)-7-oxa-2-oxospiro[bicyclo[4.3.0]nonane-8,4′-piperidin-1′-yl]]-1-methylpyridinium p-toluenesulfonate]: the “Concentration required” value was determined as 0.62 µM. Regarding `CC(C)OC(=O)C12CN(S(=O)(=O)c3ccc4cc(Cl)ccc4c3)CC(=O)N1CC1(CCN(c3ccncc3)CC1)O2` (stereo not drawn) [Example 29, 1,4-diaza-4-(6-chloronaphthalen-2-ylsulfonyl)-6-(isopropoxycarbonyl)-7-oxa-1′-(4-pyridyl)spiro[bicyclo[4.3.0]nonane-8,4′-piperidin]-2-one], the “Concentration required” value worked out at 0.90 µM. The same measure, in the same setting: the figure for `NCC12CN(S(=O)(=O)c3ccc4cc(Cl)ccc4c3)CC(=O)N1CC1(CCN(c3ccncc3)CC1)O2` (stereo not drawn) [Example 58, 6-(aminomethyl)-1,4-diaza-4-(6-chloronaphthalen-2-ylsulfonyl)-7-oxa-1′-(4-pyridyl)spiro[bicyclo[4.3.0]nonane-8,4′-piperidin]-2-one] is 0.18 µM. Still for that read-out and setting: the figure for `CC12CN(S(=O)(=O)c3ccc4cc(Cl)ccc4c3)CC(=O)N1CC1(CCN(c3ccncc3)CC1)O2` (stereo not drawn) [Example 69, 1,4-diaza-4-(6-chloronaphthalen-2-ylsulfonyl)-6-methyl-7-oxa-1′-(4-pyridyl)spiro[bicyclo[4.3.0]nonane-8,4′-piperidin]-2-one] is 0.36 µM. Same read-out and setting: the same measure for `O=C1CN(S(=O)(=O)c2cc3ccc(Cl)cc3s2)CC2NC3(CCN(c4ccncc4)CC3)CN12` (stereo not drawn) [Example 275, 1,4,7-triaza-4-(6-chlorobenzo[b]thiophen-2-ylsulfonyl)-1′-(4-pyridyl)spiro[bicyclo[4.3.0]nonane-8,4′-piperidin]-2-one]: 0.17 µM; for `COCC12CN(S(=O)(=O)C3=Cc4ccc(Cl)cc4OC3)CC(=O)N1CC1(CCN(c3ccncc3)CC1)O2` (stereo not drawn) [Example 388, 1,4-diaza-4-(7-chloro-2H-benzopyran-3-sulfonyl)-6-(methoxymethyl)-7-oxa-1′-(4-pyridyl)spiro[bicyclo[4.3.0]nonane-8,4′-piperidin]-2-one]: 0.22 µM; for `COCC12CN(S(=O)(=O)c3cc4ccc(Cl)cc4s3)CC(=O)N1CC1(CCN(c3ccncc3)CC1)O2` (stereo not drawn) [Example 399, 1,4-diaza-4-(6-chlorobenzo[b]thiophen-2-ylsulfonyl)-6-(methoxymethyl)-7-oxa-1′-(4-pyridyl)spiro[bicyclo[4.3.0]nonane-8,4′-piperidin]-2-one]: 0.18 µM. For the molecule `COCC12CN(S(=O)(=O)c3cc4ccc(Cl)cc4s3)CC(=O)N1CC1(CCN(c3ccncc3)CC1)N2` (stereo not drawn) [Example 461, 1,4,7-triaza-4-(6-chlorobenzo[b]thiophen-2-ylsulfonyl)-6-(methoxymethyl)-1′-(4-pyridyl)spiro[bicyclo[4.3.0]nonane-8,4′-piperidin]-2-one], the “Concentration required” value turned out to be 0.16 µM.

As for `COCC12CN(S(=O)(=O)c3cc4cc(Cl)ccc4o3)CC(=O)N1CC1(CCN(c3ccncc3)CC1)N2` (stereo not drawn) [Example 471, 1,4,7-triaza-4-(5-chlorobenzo[b]furan-2-ylsulfonyl)-6-(methoxymethyl)-1′-(4-pyridyl)spiro[bicyclo[4.3.0]nonane-8,4′-piperidin]-2-one], the “Concentration required” value was found to be 0.27 µM. As for `COCC12CN(S(=O)(=O)c3cc4cc(Cl)ccc4o3)CC(=O)N1CC1(CCN(c3ccncc3)CC1)N2C` (stereo not drawn) [Example 533, 1,4,7-triaza-4-(5-chlorobenzo[b]furan-2-ylsulfonyl)-6-(methoxymethyl)-7-methyl-1′-(4-pyridyl)spiro[bicyclo[4.3.0]nonane-8,4′-piperidin]-2-one], the “Concentration required” value was 0.35 µM. On to `O=C1CN(S(=O)(=O)C=Cc2ccc(Cl)s2)CC2OC3(CCN(c4ccncc4)CC3)CN12` (stereo not drawn) [Example 600, 1,4-diaza-4-[2-(5-chlorothiophen-2-yl)ethenesulfonyl]-7-oxa-1′-(4-pyridyl)spiro[bicyclo[4.3.0]nonane-8,4′-piperidin]-2-one], for which the “Concentration required” value was 0.22 µM. `COCC12CN(S(=O)(=O)C=Cc3ccc(Cl)s3)CC(=O)N1CC1(CCN(c3ccncc3)CC1)N2C` (stereo not drawn) [Example 740, 1,4,7-triaza-4-[2-(5-chlorothiophen-2-yl)ethenesulfonyl]-6-(methoxymethyl)-7-methyl-1′-(4-pyridyl)spiro[bicyclo[4.3.0]nonane-8,4′-piperidin]-2-one]: the “Concentration required” value is 0.18 µM.

The target of the next assay is T1, human FXa (Homo sapiens, UniProt P00742).
T1 construct: purchased Enzyme Research Laboratories, Inc
T1 sequence (P00742 235-488 limits assumed): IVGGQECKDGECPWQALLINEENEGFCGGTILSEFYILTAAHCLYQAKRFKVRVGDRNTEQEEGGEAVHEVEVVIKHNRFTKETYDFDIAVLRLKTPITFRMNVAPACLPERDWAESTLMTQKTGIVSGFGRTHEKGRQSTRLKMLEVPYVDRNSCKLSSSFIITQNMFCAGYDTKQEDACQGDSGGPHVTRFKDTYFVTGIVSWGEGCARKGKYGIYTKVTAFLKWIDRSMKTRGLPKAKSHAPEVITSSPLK
T1 sequence (P00742 41-179 partner limits assumed): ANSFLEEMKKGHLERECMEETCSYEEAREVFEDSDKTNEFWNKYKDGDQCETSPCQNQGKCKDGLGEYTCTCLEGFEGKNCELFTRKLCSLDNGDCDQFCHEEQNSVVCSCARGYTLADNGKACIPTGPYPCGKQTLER
Kind of assay: Measurement of human FXa inhibitory action. The settings on record: bioassay procedure of Experimental Example 1, a); reference compounds. It counts as biochemical. As to the method:
In vitro FXa inhibitory activity is measured in accordance with the method of Kettner et al. (Journal of Biological Chemistry, vol. 265, pages 18289 to 18297, 1990). To be more specific, human FXa (product of Enzyme Research Laboratories, Inc., 0.019 U/ml) is mixed with a test compound diluted with dimethylsulfoxide (DMSO) at various concentrations and a synthetic substrate S-2222 (Chromogenix AB, 0.4 mM). The mixtures are incubated at 37° C. in Tris-hydrochloric acid buffer (pH 7.5) while the absorbance at 405 nm is measured continuously. To calculate the FXa inhibitory activity of the test compound, the initial reaction velocity is compared with the value for a control containing no test compound. It should be noted that the FXa inhibitory activity of the test compound is generally indicated as IC50.
`O=C(C(CNS(=O)(=O)c1ccc2cc(Cl)ccc2c1)NCC1CCN(c2ccncc2)CC1)N1CCS(=O)(=O)CC1` (stereo not drawn) [Compound B, 4-[3-(6-chloronaphthalen-2-ylsulfoneamide)-2-[l-(4-pyridyl)piperidin-4-ylmethyl]aminopropionyl]-1,1-dioxothiomorpholine] returned an IC50 of 31 µM. In other words, the double-digit micromolar range. Same read-out and setting: the figure for `CCOC(=O)[C@H]1CN(S(=O)(=O)c2ccc3cc(Cl)ccc3c2)CC(=O)N1CC1CCN(c2ccncc2)CC1` [Compound C, (R)-4-(6-chloronaphthalen-2-ylsulfonyl)-6-ethoxycarbonyl-l-[1-(4-pyridyl)piperidin-4-ylmethyl]piperazin-2-one] is 28 µM.

As usually defined, the IC50 is the concentration needed to halve the response being measured.
